Assay results from patent US20020115853A1, “Benzimidazolones and analogues” (priority 1999, published 2002).
Values joined by “and” are separate entries in the source; they are usually repeats but may differ in a detail not shown here. Equal values may be shown once.

How the values were obtained:
[1] = test system: T47D cells; test: T47D cell proliferation assay (BrdU incorporation); assay type: cell-based; conditions: Homo sapiens, agonist mode, reference progestins, read-out: Estimated EC50, BrdU incorporation, individual studies
Method: 1. T47D cell Proliferation Assay
The objective of this assay is the determination of progestational and antiprogestational potency by using a cell proliferation assay in T47D cells. A compound's effect on DNA synthesis in T47D cells is measured.
DMEM:F12 (1:1) (GIBCO, BRL) supplemented with 10% (v/v) fetal bovine serum (not heat-inactivated), 100 U/ml penicillin, […], and 2 mM GlutaMax (GIBCO, BRL). b. Treatment medium: Minimum Essential
Medium (MEM) (#51200-038GIBCO, BRL) phenol red-free supplemented with 0.5% charcoal stripped fetal bovine serum, 100 U/ml penicillin, […] streptomycin, and 2 mM GlutaMax (GIBCO, BRL).
Stock T47 D cells are maintained in growth medium. For BrdU incorporation assay, cells are plated in 96-well plates (Falcon, Becton Dickinson Labware) at 10,000 cells/well in growth medium. […]
At the end of BrdU labeling, the medium is removed and BrdU incorporation is measured using a cell proliferation ELISA kit (#RPN 250, Amersham Life Science) according to manufacturer's instructions. […] Then 25 μl of 1 M sulfuric acid is added to each well to stop color reaction and optical density is read in a plate reader at 450 nm within 5 min.
Square root-transformed data are used for analysis of variance and nonlinear dose response curve fitting for both agonist and antagonist modes. […] EC50 or IC50 values are calculated from the retransformed values. […]

[2] = test system: rat uterine decidualization; test: Rat decidualization assay; assay type: in vivo; conditions: ovariectomized rats, p.o., with progesterone 5.6 mg/kg
Method: 2. Rat Decidualization Assay
b. Animals (RACUC protocol #5002)
The animals are treated once daily for seven days.
Uteri are removed and trimmed of fat.
S f. Analysis of Results:
Body weight: Mean total animal body weight (default-kg)
Decidual response: [(D-C)/C]×100%

| melting point [°C] | SMILES | also measured |
| --- | --- | --- |
| 168 to 169 | O=c1[nH]c2ccc(-c3cccc(Cl)c3)cc2n1Cc1ccccc1 [Compound 1, 1-Benzyl-6-(3-chloro-phenyl)-1,3-dihydro-benzoimidazol-2-one] | – |
| 202 to 203 | O=c1[nH]c2ccc(-c3cccc([N+](=O)[O-])c3)cc2n1Cc1ccccc1 [Compound 2, 1-Benzyl-6-(3-nitro-phenyl)-1,3-dihydro-benzoimidazol-2-one] | – |
| 219 to 220 | Cn1c(=O)[nH]c2ccc(-c3cccc(Cl)c3)cc21 [Compound 3, 6-(3-chloro-phenyl)-1-methyl-1,3-dihydro-benzoimidazol-2-one] | – |
| 264 to 265 | Cn1c(=O)[nH]c2ccc(-c3cccc([N+](=O)[O-])c3)cc21 [Compound 4, 1-Methyl-6-(3-nitro-phenyl)-1,3-dihydro-benzoimidazol-2-one] | – |
| 290 to 292 | O=C1CSc2cc(-c3cccc([N+](=O)[O-])c3)ccc2N1 [Compound B1, 7-(3-Nitro-phenyl)-4H-benzo[1,4]thiazin-3-one] | – |
| 180 | CCC1Sc2cc(-c3cccc([N+](=O)[O-])c3)ccc2NC1=O (stereo not drawn) [Compound B2, 2-Ethyl-7-(3-nitro-phenyl)-4H-benzo[1,4]thiazin-3-one] | – |
| 146 to 150 | CC(C)N1CC(=O)Nc2ccc(-c3cccc(Cl)c3)cc21 [Compound C4, 6-(3-Chloro-phenyl)-4-isopropyl-3,4-dihydro-1H-quinoxalin-2-one] | – |
| 208 to 213 | CC(C)N1CC(=O)Nc2ccc(-c3ccc(F)c(Cl)c3)cc21 [Compound C5, 6-(3-Chloro-4-fluoro-phenyl)-4-isopropyl-3,4-dihydro-1H-quinoxalin-2-one] | – |
| 324 to 325 | O=c1[nH]c2ccc(-c3cccc([N+](=O)[O-])c3)cc2[nH]1 [Example 9, 5-(3-Nitro-phenyl)-1,3-dihydro-benzoimidazol-2-one] | – |
| 280 to 281 | O=c1[nH]c2ccc(-c3cccc([N+](=O)[O-])c3)cc2o1 [Example 11, 6-(3-Nitro-phenyl)-3H-benzooxazol-2-one] | – |
| 276 to 277 | O=c1[nH]c2ccc(-c3cccc([N+](=O)[O-])c3)cc2s1 [Example 12, 6-(3-Nitro-phenyl)-3H-benzothiazol-2-one] | – |
| 195 to 196 | O=c1[nH]c2ccc(-c3cccc(Cl)c3)cc2s1 [Example 13, 6-(3-Chloro-phenyl)-3H-benzothiazol-2-one] | – |
| 238 to 240 | CC(C)N1CC(=O)Nc2ccc(-c3cc(F)cc(C#N)c3)cc21 [Example 20, 6-(3-Cyano-5-fluorophenyl)-4-isopropyl-3,4-dihydro-1H-quinoxalin-2-one] | – |
| 211 to 212 | S=c1[nH]c2ccc(-c3cccc(Cl)c3)cc2n1Cc1ccccc1 [Example 24, 1-Benzyl-6-(3-chlorophenyl)-1,3-dihydro-2H-benzimidazole-2-thione] | – |
| 244 to 245 | O=[N+]([O-])c1cccc(-c2ccc3[nH]c(=S)n(Cc4ccccc4)c3c2)c1 [Example 25, 1-Benzyl-6-(3-nitrophenyl)-1,3-dihydro-2H-benzimidazole-2-thione] | – |
| 237 to 243 | CN1CC(=O)Nc2ccc(-c3cccc([N+](=O)[O-])c3)cc21 [Example 26, 6-(3-Nitro-phenyl)-4-methyl-3,4-dihydro-1H-quinoxalin-2-one] | – |
| 228 to 230 | CC1Nc2cc(-c3ccc(Cl)cc3)ccc2NC1=O (stereo not drawn) [Example 27, 6-(4-Chloro-phenyl)-3-methyl-3,4-dihydro-1H-quinoxalin-2-one] | – |
| 182 to 185 | O=C1CN(Cc2ccccc2)c2cc(-c3cccc(Cl)c3)ccc2N1 [Example 28, 4-Benzyl-6-(3-chlorophenyl)-3,4-dihydroquinoxalin-2 (1H)-one] | – |
| 208 to 212 | CC(C)OC(=O)N1CC(=S)Nc2ccc(-c3cccc(Cl)c3)cc21 [Example 30, Isopropyl 7-(3-chlorophenyl)-3-thioxo-3,4-dihydroquinoxaline-1(2H)-carboxylate] | – |
| – | CC(=O)O[C@]1(C(C)=O)CC[C@H]2[C@@H]3C[C@H](C)C4=CC(=O)CC[C@]4(C)[C@H]3CC[C@@]21C [MPA, medroxyprogesterone acetate] | EC50 [1]: 0.019 nM |
| – | CC#C[C@]1(O)CC[C@H]2[C@@H]3CCC4=CC(=O)CCC4=C3[C@@H](c3ccc(N(C)C)cc3)C[C@@]21C [RU486] | Estimated IC50, decrease in EC50 progesterone induced decidual response [2]: 0.21 mg/kg and 0.14 mg/kg |
